Activity calls are given as the source filed them.
How the values were obtained:
Protein skinhead-1 = biological target: T1, Protein skinhead-1 (Caenorhabditis elegans, UniProt P34707); type: functional
T1 sequence (P34707 whole entry): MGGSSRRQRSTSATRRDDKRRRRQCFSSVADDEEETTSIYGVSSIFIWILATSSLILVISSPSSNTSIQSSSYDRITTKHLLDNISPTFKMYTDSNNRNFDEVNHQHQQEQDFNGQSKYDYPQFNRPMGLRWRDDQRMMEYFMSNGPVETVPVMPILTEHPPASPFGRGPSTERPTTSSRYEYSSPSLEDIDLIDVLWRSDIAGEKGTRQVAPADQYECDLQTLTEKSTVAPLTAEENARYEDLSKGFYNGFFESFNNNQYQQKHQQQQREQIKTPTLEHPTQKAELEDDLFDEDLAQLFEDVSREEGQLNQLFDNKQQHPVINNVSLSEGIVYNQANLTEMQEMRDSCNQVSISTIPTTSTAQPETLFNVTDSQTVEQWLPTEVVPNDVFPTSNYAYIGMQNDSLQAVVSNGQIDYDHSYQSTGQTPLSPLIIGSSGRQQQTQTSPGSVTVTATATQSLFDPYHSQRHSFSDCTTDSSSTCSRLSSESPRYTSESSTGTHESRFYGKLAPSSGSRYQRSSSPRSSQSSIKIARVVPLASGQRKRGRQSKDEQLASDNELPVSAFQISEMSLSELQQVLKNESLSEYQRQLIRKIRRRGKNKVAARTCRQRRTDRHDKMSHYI

Cytochrome P450 3A4 = Cytochrome P450 3A4 (Homo sapiens, UniProt P08684);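 note: CYP3A4 tested as one member of a cytochrome P450 panel screen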
Chain of Cytochrome P450 3A4 (P08684 whole entry): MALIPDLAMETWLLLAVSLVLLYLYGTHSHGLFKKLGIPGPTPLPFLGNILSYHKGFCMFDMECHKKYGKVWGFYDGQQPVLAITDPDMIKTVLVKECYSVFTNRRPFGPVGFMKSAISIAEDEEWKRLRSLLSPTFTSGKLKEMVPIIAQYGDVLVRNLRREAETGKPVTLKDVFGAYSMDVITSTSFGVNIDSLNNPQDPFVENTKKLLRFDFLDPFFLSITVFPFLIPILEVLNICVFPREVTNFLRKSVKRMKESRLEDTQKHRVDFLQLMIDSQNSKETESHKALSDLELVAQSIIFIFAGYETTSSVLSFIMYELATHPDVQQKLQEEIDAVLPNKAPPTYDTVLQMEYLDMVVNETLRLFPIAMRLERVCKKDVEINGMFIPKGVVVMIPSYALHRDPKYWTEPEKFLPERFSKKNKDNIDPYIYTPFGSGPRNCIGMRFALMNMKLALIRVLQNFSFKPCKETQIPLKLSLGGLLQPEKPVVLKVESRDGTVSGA

Cytochrome P450 2C19 = Cytochrome P450 2C19 (Homo sapiens, UniProt P33261); assay: Cytochrome panel assay with activity outcomes. Panel member name: p450-cyp2c19 Compounds with AC50 equal or less than 10 uM are considered active; type: functional; details: read-out: AC50
Chain of Cytochrome P450 2C19 (P33261 whole entry): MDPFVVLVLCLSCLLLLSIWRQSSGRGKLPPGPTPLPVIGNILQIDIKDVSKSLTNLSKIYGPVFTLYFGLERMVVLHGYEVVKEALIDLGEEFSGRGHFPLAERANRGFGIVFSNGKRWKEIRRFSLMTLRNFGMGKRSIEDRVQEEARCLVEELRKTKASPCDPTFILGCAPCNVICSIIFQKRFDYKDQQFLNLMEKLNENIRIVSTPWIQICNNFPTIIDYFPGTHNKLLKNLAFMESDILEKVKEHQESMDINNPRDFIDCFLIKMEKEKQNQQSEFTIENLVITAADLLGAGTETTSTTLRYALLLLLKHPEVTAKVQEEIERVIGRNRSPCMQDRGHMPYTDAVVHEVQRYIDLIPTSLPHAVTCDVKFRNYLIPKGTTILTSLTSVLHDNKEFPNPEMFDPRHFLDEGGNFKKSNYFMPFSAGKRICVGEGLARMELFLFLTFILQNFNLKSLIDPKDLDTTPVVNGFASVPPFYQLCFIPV

Cytochrome P450 1A2 = biological target: T2, Cytochrome P450 1A2 (Homo sapiens, UniProt P05177);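 note: PubChem cytochrome P450 panel assay, CYP1A2 panel member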
T2 sequence (P05177 whole entry): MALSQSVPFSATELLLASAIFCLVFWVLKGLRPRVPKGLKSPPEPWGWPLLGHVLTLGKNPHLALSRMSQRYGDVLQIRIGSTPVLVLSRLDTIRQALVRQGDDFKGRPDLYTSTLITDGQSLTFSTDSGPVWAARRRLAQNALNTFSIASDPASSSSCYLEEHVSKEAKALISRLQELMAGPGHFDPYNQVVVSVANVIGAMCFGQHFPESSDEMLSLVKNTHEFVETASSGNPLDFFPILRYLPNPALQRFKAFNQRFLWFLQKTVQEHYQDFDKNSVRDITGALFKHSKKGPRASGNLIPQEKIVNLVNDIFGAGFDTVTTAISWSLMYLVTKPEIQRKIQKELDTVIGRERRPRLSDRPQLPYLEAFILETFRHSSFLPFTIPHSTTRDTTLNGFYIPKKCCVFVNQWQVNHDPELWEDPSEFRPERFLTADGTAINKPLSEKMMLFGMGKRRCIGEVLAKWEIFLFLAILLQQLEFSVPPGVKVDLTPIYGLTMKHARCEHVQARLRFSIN

[1] = microbe, parasite or virus in culture; type: functional; details: Mycobacterium tuberculosis
[2] = viability of PTEN-deleted HCT116 cells – cell-based, HCT116 PTEN knockout, dose response (AID 1047); type: functional;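 note: HCT116 colon tumor cells with PTEN knocked out; cells exposed to compound for 60 hours before readout; potency for loss of cell viability measured by luminescence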
[3] = Luminescence Cell-Based Dose Retest to Confirm Inhibitors of Cancer Stem Cells. [Related pubchem assays (depositor defined):AID2717, AID2721]; type: functional; details: Homo sapiens
[4] = viability of HCT116 lacking mutant beta-catenin – cell-based, human colon tumor, dose response (AID 1045); type: functional;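 note: HCT116 colon tumor cells with beta catenin knocked out; cells exposed to compound for 60 hours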
cells [5] = type: functional, cell-based
cells [6] = type: functional, cell-based; remark: listed apart in the source
Nonstructural protein 1 = Nonstructural protein 1 (Influenza A virus, UniProt Q194T2); type: functional, Influenza A virus (A/California/07/2009(H1N1))
Chain of Nonstructural protein 1 (Q194T2 whole entry): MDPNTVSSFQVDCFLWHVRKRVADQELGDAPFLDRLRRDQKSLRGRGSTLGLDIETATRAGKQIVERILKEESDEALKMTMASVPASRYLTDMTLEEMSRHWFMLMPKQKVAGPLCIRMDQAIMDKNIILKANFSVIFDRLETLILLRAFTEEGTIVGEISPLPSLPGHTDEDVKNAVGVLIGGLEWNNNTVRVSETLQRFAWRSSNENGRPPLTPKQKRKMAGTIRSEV

[7] = luciferase reporter signal suppression in cells – H4 neuroglioma cells, luminescence, dose response (AID 1990); type: functional, cell-based
[8] = Luminescence Cell-Based Dose Response HTS to Identify Inhibitors of 5'UTR Stem-Loop Driven Prion Protein mRNA Translation in H4 Neuroglioblastoma Cells. [Related pubchem assays: 1827 (Project Summary), 1813 (Primary HTS)]; type: functional
[9] = alpha-synuclein stem-loop luciferase translation blockers – H4 neuroglioma cells, luminescence, confirmation (AID 1988); type: functional, cell-based
Large T antigen = Large T antigen (Simian virus 40, UniProt P03070); type: functional, Betapolyomavirus macacae;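 note: Confirmatory-stage PubChem screen for compounds that inhibit SV40 T antigen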
Chain of Large T antigen (P03070 whole entry, the tested form may be a part): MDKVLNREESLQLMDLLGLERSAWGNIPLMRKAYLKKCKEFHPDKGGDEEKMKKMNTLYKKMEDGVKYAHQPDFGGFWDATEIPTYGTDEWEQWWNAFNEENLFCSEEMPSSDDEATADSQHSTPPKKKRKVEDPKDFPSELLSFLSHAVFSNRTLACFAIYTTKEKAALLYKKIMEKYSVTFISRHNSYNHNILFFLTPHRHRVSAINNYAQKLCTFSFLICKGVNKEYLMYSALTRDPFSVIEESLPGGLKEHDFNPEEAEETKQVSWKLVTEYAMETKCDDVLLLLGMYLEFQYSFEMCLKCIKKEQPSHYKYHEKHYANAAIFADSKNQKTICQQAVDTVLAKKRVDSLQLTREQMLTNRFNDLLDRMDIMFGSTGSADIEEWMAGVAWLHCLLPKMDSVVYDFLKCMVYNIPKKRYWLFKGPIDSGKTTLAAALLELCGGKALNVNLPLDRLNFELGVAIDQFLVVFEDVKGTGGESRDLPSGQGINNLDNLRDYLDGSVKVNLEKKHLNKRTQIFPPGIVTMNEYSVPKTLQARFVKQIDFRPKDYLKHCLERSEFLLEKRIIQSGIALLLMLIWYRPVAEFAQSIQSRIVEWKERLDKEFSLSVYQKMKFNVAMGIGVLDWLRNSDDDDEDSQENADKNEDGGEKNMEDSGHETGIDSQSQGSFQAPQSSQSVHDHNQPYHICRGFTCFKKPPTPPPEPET

[10] = blockers of HIV-1 ZM109 envelope-driven cell-cell fusion – HeLa effector, CEM target cells, luciferase, cherry-pick, dose response (AID 652058); type: functional, cell-based;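 note: luciferase signal from HIV-1 Env mediated cell-cell fusion of effector and target cells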
[11] = biological target: T3, Rac GTPase-activating protein 1 (Homo sapiens, UniProt Q9H0H5); assay: blockers of MgcRacGAP-driven Rac1 GTP hydrolysis – biochemical, ADP Hunter fluorescence, primary and confirmatory, confirmation (AID 624330); type: functional
T3 sequence (Q9H0H5 whole entry): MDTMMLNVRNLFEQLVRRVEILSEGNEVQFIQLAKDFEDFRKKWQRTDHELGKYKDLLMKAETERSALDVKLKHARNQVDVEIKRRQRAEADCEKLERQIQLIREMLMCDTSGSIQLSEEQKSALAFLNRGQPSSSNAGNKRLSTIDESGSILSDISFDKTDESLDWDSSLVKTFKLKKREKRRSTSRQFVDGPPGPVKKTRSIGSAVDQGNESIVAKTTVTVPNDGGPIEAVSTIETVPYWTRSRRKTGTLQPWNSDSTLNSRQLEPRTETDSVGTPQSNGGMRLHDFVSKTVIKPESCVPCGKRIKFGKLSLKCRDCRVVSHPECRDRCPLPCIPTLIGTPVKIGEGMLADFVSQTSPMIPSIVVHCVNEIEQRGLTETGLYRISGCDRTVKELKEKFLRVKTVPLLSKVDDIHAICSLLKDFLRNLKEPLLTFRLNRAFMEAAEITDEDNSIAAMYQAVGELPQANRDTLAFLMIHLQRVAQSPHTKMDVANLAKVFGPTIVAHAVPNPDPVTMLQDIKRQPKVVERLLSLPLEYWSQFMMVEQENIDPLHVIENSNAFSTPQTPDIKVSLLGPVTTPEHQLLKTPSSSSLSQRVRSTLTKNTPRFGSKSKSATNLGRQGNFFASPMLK

H9c2 = assay: cells; type: functional, cell-based; details: Rattus norvegicus, H9c2, Myocardium;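 note: confirmatory concentration-response retest of ultra-high-throughput screening hits for modulation of myocardial damage; cell death induced by hydrogen peroxide oxidative stress; compound pretreatment for 60 min then peroxide exposure for 2 h; potency is for protecting the cells against peroxide damage rather than for killing them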
[12] = P. falciparum Dd2 growth inhibitors, dose response, SYBR Green, cherry-picked samples (AID 1159567); type: functional, cell-based

With `CC(C)(C)CC(=O)NC(=S)N1CCCCCC1` the IC50 (Protein skinhead-1) was > 100 µM (inactive), the AC50 (Cytochrome P450 3A4) was 12.6 µM (inconclusive) and the AC50 (Cytochrome P450 2C19) was 39.8 µM (inconclusive). For the same molecule, the AC50 (Cytochrome P450 1A2) was 15.8 µM (inconclusive).
In the case of `O=C(Nc1ccc2c(c1)OCO2)c1cccc(F)c1`, the IC50 (Protein skinhead-1) is reported as > 100 µM (inactive).
For `CCC(/C=C(\O)c1cccnc1)=N\c1ccc(C)c(C)c1`, the CC50 [1] was > 40 µM (active).
With `CCOC(=O)C(C)(C)N(Cc1ccc(Cl)cc1)S(=O)(=O)c1ccc(Cl)c([N+](=O)[O-])c1` the EC50 [2] was 14.7 µM (active), the AC50 [3] was 2.07 µM (active) and the EC50 [4] was 8.15 µM (active).
With `CCOc1ccc(C(=O)NCC2CCCO2)cc1OCC` (stereo unspecified) the EC50 (cells [5]) was > 350 µM (not active) and the EC50 (cells [6]) was > 350 µM (not active).
In the case of `Cn1cc(C(=O)c2ccc(Cl)cc2)cc1-c1nc2ccccc2n1C`, the CC50 [1] is reported as > 40 µM (active).
For `COc1cccc(-c2cc(C(F)(F)F)n3nc(C(=O)N4CCC5(CC4)OCCO5)cc3n2)c1`, the EC50 (cells [5]) was > 350 µM (not active) and the EC50 (cells [6]) was > 350 µM (not active).
For `O=[N+]([O-])c1cccc(/C=N/Nc2nc(C(Cl)(Cl)Cl)nc3ccccc23)c1`, the EC50 [2] was 24.4 µM (active) and the EC50 [4] was 25.2 µM (active).
With `CCCCCCCCNC(=O)C(CCC(=O)OCc1ccccc1)NC(C)=O` (stereo unspecified) the IC50 (Protein skinhead-1) was > 100 µM (inactive).
With `Cc1ccc(C)c(-c2cc(C(=O)Nc3cccc(C(=O)O)c3)c3ccccc3n2)c1` the EC50 (cells [5]) was > 350 µM (not active) and the EC50 (cells [6]) was > 350 µM (not active).
In the case of `O=C(NN=Cc1c(O)ccc2ccccc12)c1ccc[n+](CCO)c1`, the IC50 (Nonstructural protein 1) is reported as 3.07 µM (active).
In the case of `S=C(NN=C1CCN(Cc2ccccc2)CC1)NC1CCCCC1`, the CC50 [1] is reported as > 40 µM (active), the EC50 [7] is reported as > 120 µM (not active) and the EC50 [8] is reported as > 120 µM (not active). For the same molecule, the EC50 [9] was > 120 µM (not active).
In the case of `N#CC(C#N)=C(N)/C(C#N)=C/c1cc(O)c(O)c(O)c1` [TYRPHOSTIN 51], the IC50 (Large T antigen) is reported as 19.8 µM (active).
For `CCc1ccc2nc(O)c(CN(CCCN3CCOCC3)C(=O)Nc3cccc(Cl)c3)cc2c1`, the CC50 [1] was 15 µM (active).
With `COC(=O)CC1C(=O)NCCN1C(=O)CSc1nnc(Nc2ccc(OC)cc2)s1` (stereo unspecified) the EC50 (cells [5]) was > 350 µM (not active) and the EC50 (cells [6]) was > 350 µM (not active).
In the case of `CCCCCCn1c(COc2ccccc2F)nnc1SCC(=O)N1c2ccccc2NC(=O)C1(C)C`, the EC50 [2] is reported as 23.5 µM (active) and the EC50 [4] is reported as 26.5 µM (active).
For `CCc1[nH]nc2c1/C(=N\O)CC(c1ccccc1)C2` (stereo unspecified), the EC50 [2] was 61.3 µM (active) and the EC50 [4] was 91.4 µM (active).
In the case of `O=C(Nc1ccc(F)cc1)Nc1ccc2c(c1)[C@@H]1C[C@H](CC(=O)N3CCCCC3)O[C@H](CO)[C@@H]1O2`, the AC50 [10] is reported as 62.5 µM (active).
With `O=[N+]([O-])c1cccc(S(=O)(=O)N/N=C/c2ccc(O)cc2)c1` the IC50 [11] was 49.5 µM (active) and the IC50 (Large T antigen) was 10.6 µM (active).
For `COc1ccc(NS(=O)(=O)c2ccc3c(c2)n(C)c(=O)n3C)cc1`, the IC50 (Protein skinhead-1) was > 100 µM (inactive).
For `CC(C)c1nc(CNC(=O)CCc2nnc(-c3ccsc3)o2)cs1`, the EC50 (cells [5]) was > 350 µM (not active) and the EC50 (cells [6]) was > 350 µM (not active).
For `O=C(c1cc(COc2ccc(F)cc2F)on1)N1CCCC(c2ccccc2)C1` (stereo unspecified), the CC50 [1] was > 40 µM (active).
With `Cc1cc(-c2nnc(S)n2/N=C/C=C/c2ccco2)[nH]n1` the IC50 (Large T antigen) was 32.1 µM (active).
For `CN(C)c1ccc(NC(=O)CN2CCC(N3CCCCC3)CC2)cc1`, the IC50 (Large T antigen) was 22.9 µM (active).
With `CC(C)NC(=O)CN(C)S(=O)(=O)c1ccc(F)cc1` the IC50 (Protein skinhead-1) was > 100 µM (inactive).
In the case of `CCC(=O)Nc1nc(CC(=O)Nc2ccccc2OC)cs1`, the IC50 (Protein skinhead-1) is reported as > 100 µM (inactive).
With `C=CCn1c(CC(=O)Nc2cccc(OC)c2)nnc1SCC(=O)NC1CCCCC1` the IC50 (Protein skinhead-1) was > 100 µM (inactive).
In the case of `Cc1cc(C)cc(NC(=O)CSc2ccc(-c3ccccn3)nn2)c1`, the EC50 (cells [5]) is reported as > 350 µM (not active), the EC50 (cells [6]) is reported as > 350 µM (not active) and the EC50 [7] is reported as 11.7 µM (active). For the same molecule, the EC50 [8] was 9.74 µM (active), the AC50 [3] was 4.57 µM (active) and the IC50 (H9c2) was > 79 µM (inactive). For the same molecule, the EC50 [9] was 8.69 µM (active).
With `CCCn1cc(NC(=O)c2cc(-c3ccccc3)on2)cn1` the EC50 (cells [5]) was 2.49 µM (active) and the EC50 (cells [6]) was 143 µM (active).
For `Cc1cc2c(N=O)c(NO)ccc2[nH]1`, the CC50 [1] was 5.53 µM (active) and the IC50 (Large T antigen) was 29.3 µM (active).
In the case of `Cc1ccccc1-c1nnc(S)n1/N=C/C=C/c1ccco1`, the IC50 (Large T antigen) is reported as 53 µM (active).
With `CCOC(=O)C1=C(COC(=O)c2ccc(Cl)cc2[N+](=O)[O-])NC(=O)NC1C` (stereo unspecified) the IC50 (Protein skinhead-1) was > 100 µM (inactive).
For `C[C@@H]1CN([C@H](C)CO)C(=O)c2c(c3ccccc3n2C)-c2ccccc2CO[C@@H]1CN(C)C(=O)c1cc(Cl)cc(Cl)c1`, the AC50 [12] was 3.06 µM (active).
In the case of `COc1ccc(NC(=O)Nc2ccc(CC(=O)O)cc2)cc1`, the EC50 (cells [5]) is reported as 139 µM (active) and the EC50 (cells [6]) is reported as > 350 µM (not active).
For `Cc1sc2nc(CN(C(=O)NC3CCCCC3)C3CCCC3)nc(O)c2c1C`, the CC50 [1] was > 40 µM (active).

Reference: ChEMBL document CHEMBL1201862, “PubChem BioAssay data set” (2004)
